Measured values as given in the supplement of paper PMC10627819.

Columns and labels:
S. pneumoniae D39V [1] = experiment: Bliss interaction score (quartile over a dose matrix) (fitness difference); higher = more antagonism (negative = synergy)
Method in brief: (§1)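 Each OD595 reading at entry into stationary phase was scaled to the robust mean of the untreated wells on its plate, with a ceiling of 1. These ratios define fitness, and single-drug fitness was inferred from combinations. The Bliss score compares observed fitness with the product-based expectation and is reported as quartiles across all replicate types, technical, biological and donor/recipient.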

S. aureus DSM 20231 [2] = experiment: as above
Method in brief: as §1

S. aureus Newman = experiment: as above
Method in brief: as §1

B. subtilis 168 [3] = experiment: as above
Method in brief: as §1

S. pneumoniae D39V [4] = experiment: fitness (endpoint OD595 vs no drug) (fraction); higher = more growth
Method in brief: (§2)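 Background-subtracted growth curves were the basis for fitness, taken as the optical density at entry into stationary phase over the robust mean of no-drug control wells. A cap of 1 was applied. The curves came from OD595 readings every 30 min for 14 h at 37 °C, in 384-well plates seeded at OD595 0.01 with 30 µl, or 55 µl for S. pneumoniae.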

S. aureus DSM 20231 [5] = experiment: as above
Method in brief: as §2

B. subtilis 168 [6] = experiment: as above
Method in brief: as §2
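For Bliss interaction score (quartile over a dose matrix) in this document: first quartile when negative (synergy) and third quartile when positive (antagonism).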

C[C@@H]1O[C@@H]1P(=O)(O)O [Fosfomycin] + CCC[C@@H]1C[C@@H](C(=O)N[C@@H]([C@H]2O[C@H](SC)[C@H](O)[C@@H](O)[C@H]2O)[C@@H](C)O)N(C)C1 [Lincomycin]
Conditions	Bliss interaction score
B. subtilis 168 [3]	0.0718
S. aureus DSM 20231 [2]	-0.158
S. aureus Newman	-0.31
S. pneumoniae D39V [1]	0.0737

fitness
Conditions	partner 0.1 µg/mL	partner 0.2 µg/mL	partner 0.215 µg/mL	partner 0.4 µg/mL	partner 0.43 µg/mL	partner 0.8 µg/mL	partner 0.86 µg/mL
B. subtilis 168 [6], first compound 1.562 µg/mL	0.689	0.707	–	0.705	–	–	–
B. subtilis 168 [6], first compound 3.124 µg/mL	0.616	0.591	–	0.61	–	–	–
B. subtilis 168 [6], first compound 6.248 µg/mL	0.469	0.429	–	0.476	–	–	–
S. aureus DSM 20231 [5], first compound 0.781 µg/mL	0.645	0.508	–	0.137	–	–	–
S. aureus DSM 20231 [5], first compound 1.562 µg/mL	0.515	0.32	–	0.0482	–	–	–
S. aureus DSM 20231 [5], first compound 3.124 µg/mL	0.387	0.0895	–	0.0388	–	–	–
S. pneumoniae D39V [4], first compound 1.25 µg/mL	–	0.606	0.812	0.365	0.698	0.0632	0.499
S. pneumoniae D39V [4], first compound 2.5 µg/mL	–	0.58	0.823	0.317	0.683	0.0611	0.45
S. pneumoniae D39V [4], first compound 5 µg/mL	–	0.511	0.785	0.285	0.691	0.0462	0.394

fitness, B. subtilis 168 [6], one replicate
Conditions	first compound 1.562 µg/mL	first compound 3.124 µg/mL	first compound 6.248 µg/mL
partner 0.8 µg/mL	0.719	0.572	0.466
partner 1.6 µg/mL	0.695	0.537	0.436

CO/N=C(\C(=O)N[C@@H]1C(=O)N2C(C(=O)O)=C(COC(C)=O)CS[C@H]12)c1csc(N)n1 [Cefotaxime] + COc1cc(Cc2cnc(N)nc2N)cc(OC)c1OC [Trimethoprim]
Conditions	Bliss interaction score
B. subtilis 168 [3]	0.0814
S. aureus DSM 20231 [2]	0.0326
S. aureus Newman	-0.0597
S. pneumoniae D39V [1]	0.224

one replicate
Conditions	fitness
B. subtilis 168 [6], first compound 0.00775 µg/mL, partner 0.125 µg/mL	0.309
B. subtilis 168 [6], first compound 0.00775 µg/mL, partner 0.25 µg/mL	0.288
B. subtilis 168 [6], first compound 0.00775 µg/mL, partner 0.5 µg/mL	0.269
B. subtilis 168 [6], first compound 0.0155 µg/mL, partner 0.125 µg/mL	0.262
B. subtilis 168 [6], first compound 0.0155 µg/mL, partner 0.25 µg/mL	0.181
B. subtilis 168 [6], first compound 0.0155 µg/mL, partner 0.5 µg/mL	0.0769
B. subtilis 168 [6], first compound 0.031 µg/mL, partner 0.125 µg/mL	0.149
B. subtilis 168 [6], first compound 0.031 µg/mL, partner 0.25 µg/mL	0.0914
B. subtilis 168 [6], first compound 0.031 µg/mL, partner 0.5 µg/mL	0.0904
B. subtilis 168 [6], first compound 0.0625 µg/mL, partner 0.1 µg/mL	0.47
B. subtilis 168 [6], first compound 0.0625 µg/mL, partner 0.125 µg/mL	0.432
B. subtilis 168 [6], first compound 0.0625 µg/mL, partner 0.2 µg/mL	0.454
B. subtilis 168 [6], first compound 0.0625 µg/mL, partner 0.4 µg/mL	0.402
B. subtilis 168 [6], first compound 0.125 µg/mL, partner 0.1 µg/mL	0.364
B. subtilis 168 [6], first compound 0.125 µg/mL, partner 0.125 µg/mL	0.345
B. subtilis 168 [6], first compound 0.125 µg/mL, partner 0.2 µg/mL	0.336
B. subtilis 168 [6], first compound 0.125 µg/mL, partner 0.4 µg/mL	0.296
B. subtilis 168 [6], first compound 0.25 µg/mL, partner 0.1 µg/mL	0.109
B. subtilis 168 [6], first compound 0.25 µg/mL, partner 0.125 µg/mL	0.274
B. subtilis 168 [6], first compound 0.25 µg/mL, partner 0.2 µg/mL	0.223
B. subtilis 168 [6], first compound 0.25 µg/mL, partner 0.4 µg/mL	0.127
B. subtilis 168 [6], first compound 0.5 µg/mL, partner 1 µg/mL	0.104
B. subtilis 168 [6], first compound 0.5 µg/mL, partner 2 µg/mL	0.129
B. subtilis 168 [6], first compound 1 µg/mL, partner 1 µg/mL	0.0524
B. subtilis 168 [6], first compound 1 µg/mL, partner 2 µg/mL	0.0575
B. subtilis 168 [6], first compound 2 µg/mL, partner 1 µg/mL	0.0669
B. subtilis 168 [6], first compound 2 µg/mL, partner 2 µg/mL	0.0449
S. aureus DSM 20231 [5], first compound 0.039 µg/mL, partner 0.125 µg/mL	0.663
S. aureus DSM 20231 [5], first compound 0.312 µg/mL, partner 0.125 µg/mL	0.498
S. aureus DSM 20231 [5], first compound 0.312 µg/mL, partner 0.25 µg/mL	0.384
S. aureus DSM 20231 [5], first compound 0.312 µg/mL, partner 0.5 µg/mL	0.0438

fitness
Conditions	partner 0.125 µg/mL	partner 0.25 µg/mL	partner 0.5 µg/mL	partner 1 µg/mL
B. subtilis 168 [6], first compound 0.0625 µg/mL	–	0.386	0.363	–
B. subtilis 168 [6], first compound 0.125 µg/mL	–	0.285	0.27	–
B. subtilis 168 [6], first compound 0.25 µg/mL	–	0.217	0.19	–
B. subtilis 168 [6], first compound 0.5 µg/mL	–	–	0.125	–
B. subtilis 168 [6], first compound 1 µg/mL	–	–	0.108	–
B. subtilis 168 [6], first compound 2 µg/mL	–	–	0.0672	–
S. aureus DSM 20231 [5], first compound 0.039 µg/mL	–	0.558	0.14	0.047
S. aureus DSM 20231 [5], first compound 0.078 µg/mL	0.584	0.536	0.207	0.0436
S. aureus DSM 20231 [5], first compound 0.156 µg/mL	0.605	0.57	0.299	0.0551

COc1cccc2c1C(=O)c1c(O)c3c(c(O)c1C2=O)C[C@@](O)(C(=O)CO)C[C@@H]3O[C@H]1C[C@H](N)[C@H](O)[C@H](C)O1 [Doxorubicin] + CCC[C@@H]1C[C@@H](C(=O)N[C@@H]([C@H]2O[C@H](SC)[C@H](O)[C@@H](O)[C@H]2O)[C@@H](C)O)N(C)C1 [Lincomycin]
Conditions	Bliss interaction score
B. subtilis 168 [3]	0.0938
S. aureus DSM 20231 [2]	0.167
S. aureus Newman	0.164
S. pneumoniae D39V [1]	-0.0622

fitness
Conditions	partner 0.1 µg/mL	partner 0.2 µg/mL	partner 0.215 µg/mL	partner 0.4 µg/mL	partner 0.43 µg/mL	partner 0.8 µg/mL	partner 0.86 µg/mL
B. subtilis 168 [6], first compound 0.625 µg/mL	0.903	0.882	–	0.914	–	–	–
B. subtilis 168 [6], first compound 1.25 µg/mL	0.878	0.857	–	0.88	–	–	–
B. subtilis 168 [6], first compound 2.5 µg/mL	0.726	0.668	–	0.65	–	–	–
S. aureus DSM 20231 [5], first compound 0.625 µg/mL	0.816	0.757	–	–	–	–	–
S. aureus DSM 20231 [5], first compound 1.25 µg/mL	0.853	0.835	–	–	–	–	–
S. aureus DSM 20231 [5], first compound 2.5 µg/mL	0.875	0.73	–	–	–	–	–
S. pneumoniae D39V [4], first compound 0.25 µg/mL	–	0.57	0.75	0.337	0.626	0.0441	0.427
S. pneumoniae D39V [4], first compound 0.5 µg/mL	–	0.558	0.744	0.325	0.67	0.0345	0.372
S. pneumoniae D39V [4], first compound 1 µg/mL	–	0.465	0.792	0.278	0.664	0.0189	0.307

fitness, B. subtilis 168 [6], one replicate
Conditions	first compound 0.625 µg/mL	first compound 1.25 µg/mL	first compound 2.5 µg/mL
partner 0.8 µg/mL	0.959	0.831	0.638
partner 1.6 µg/mL	0.914	0.89	0.684

Cc1ncc([N+](=O)[O-])n1CCO [Metronidazole] + COc1cc(Cc2cnc(N)nc2N)cc(OC)c1OC [Trimethoprim]
Conditions	Bliss interaction score
B. subtilis 168 [3]	0.11
S. aureus DSM 20231 [2]	-0.0577
S. aureus Newman	0.0902
S. pneumoniae D39V [1]	0.232

fitness
Conditions	first compound 0.625 µg/mL	first compound 1.25 µg/mL	first compound 2.5 µg/mL
B. subtilis 168 [6], partner 0.25 µg/mL	0.743	0.724	0.72
B. subtilis 168 [6], partner 0.5 µg/mL	0.568	0.531	0.471
S. aureus DSM 20231 [5], partner 0.125 µg/mL	0.704	0.744	0.749
S. aureus DSM 20231 [5], partner 0.25 µg/mL	0.607	0.619	0.652
S. aureus DSM 20231 [5], partner 1 µg/mL	0.0438	0.0565	0.0572

fitness, B. subtilis 168 [6], one replicate
Conditions	partner 0.1 µg/mL	partner 0.125 µg/mL	partner 0.2 µg/mL	partner 0.4 µg/mL	partner 1 µg/mL	partner 2 µg/mL
first compound 0.625 µg/mL	0.832	0.747	0.759	0.572	0.419	0.373
first compound 1.25 µg/mL	0.866	0.772	0.83	0.555	0.341	0.361
first compound 2.5 µg/mL	0.956	0.785	0.828	0.578	0.396	0.44
